Laboratory results taken from PubChem BioAssay (NCI).
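Here, GI50 denotes the concentration required for 50% inhibition of growth. At the TGI there is no net growth.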

Key:
Assay in all cases: DTP human tumour cell line panel, 384-well format; in the data active = GI50 below about 0.43 µM; inactive = the rest
M14 melanoma = system: M14 melanoma
SNB-19 CNS = system: SNB-19 CNS
SK-OV-3 ovarian = system: SK-OV-3 ovarian
OVCAR-5 ovarian = system: OVCAR-5 ovarian
SK-MEL-2 melanoma = system: SK-MEL-2 melanoma
CCRF-CEM leukemia = system: CCRF-CEM leukemia
IGROV1 ovarian = system: IGROV1 ovarian
NCI-H460 NSCLC = system: NCI-H460 NSCLC
BT-549 breast = system: BT-549 breast
HS 578T breast = system: HS 578T breast
MALME-3M melanoma = system: MALME-3M melanoma
A549 NSCLC = system: A549 NSCLC
UACC-257 melanoma = system: UACC-257 melanoma

Cc1cc2c(cc1C)NC1=C(N2)OC(c2c3ccccc3cc3ccccc23)C1=O (configuration not stated)
0.654 µM: TGI (NCI-H460 NSCLC)
0.581 µM: TGI (BT-549 breast)
inactive: GI50 (OVCAR-5 ovarian) 1.3 µM | GI50 (IGROV1 ovarian) 0.953 µM | GI50 (A549 NSCLC) 0.626 µM | GI50 (UACC-257 melanoma) 0.716 µM
5.22 µM: TGI (OVCAR-5 ovarian)
0.653 µM: TGI (M14 melanoma)
3.29 µM: TGI (UACC-257 melanoma)
0.355 µM: TGI (HS 578T breast)
0.415 µM: TGI (SK-MEL-2 melanoma)
1.54 µM: TGI (SNB-19 CNS)
1.1 µM: TGI (MALME-3M melanoma)
2.2 µM: TGI (A549 NSCLC)
active: GI50 (M14 melanoma) 0.29 µM | GI50 (SNB-19 CNS) 0.397 µM | GI50 (SK-OV-3 ovarian) 0.253 µM | GI50 (SK-MEL-2 melanoma) 0.224 µM | GI50 (CCRF-CEM leukemia) 0.194 µM | GI50 (NCI-H460 NSCLC) 0.26 µM | GI50 (BT-549 breast) 0.27 µM | GI50 (HS 578T breast) 0.178 µM | GI50 (MALME-3M melanoma) 0.334 µM
2.63 µM: TGI (IGROV1 ovarian)
0.732 µM: TGI (SK-OV-3 ovarian)
0.341 µM: TGI (CCRF-CEM leukemia)

O=C(O)c1ccc(CN2CCC(CN[C@@H]3C[C@H]3c3ccccc3)CC2)cc1
> 100 µM: TGI (M14 melanoma) | TGI (SNB-19 CNS) | TGI (SK-OV-3 ovarian) | TGI (OVCAR-5 ovarian) | TGI (SK-MEL-2 melanoma) | TGI (CCRF-CEM leukemia) | TGI (IGROV1 ovarian) | TGI (NCI-H460 NSCLC) | TGI (BT-549 breast) | TGI (HS 578T breast) | TGI (MALME-3M melanoma) | TGI (A549 NSCLC) | TGI (UACC-257 melanoma)
inactive: GI50 (M14 melanoma) > 100 µM | GI50 (SNB-19 CNS) > 100 µM | GI50 (SK-OV-3 ovarian) > 100 µM | GI50 (OVCAR-5 ovarian) > 100 µM | GI50 (SK-MEL-2 melanoma) > 100 µM | GI50 (CCRF-CEM leukemia) > 100 µM | GI50 (IGROV1 ovarian) > 100 µM | GI50 (NCI-H460 NSCLC) > 100 µM | GI50 (BT-549 breast) > 100 µM | GI50 (HS 578T breast) > 100 µM | GI50 (MALME-3M melanoma) > 100 µM | GI50 (A549 NSCLC) > 100 µM | GI50 (UACC-257 melanoma) > 100 µM
